Laboratory results published in patent publication US6316413A (Fournier Industrie et Sante, priority 1996, dated 2001).

Key:
[1] = target: T1, human B2 receptor cloned and transfected in a stable manner into a CHO cell line (Homo sapiens, UniProt P30411); assay: Binding to the cloned human bradykinin B2 receptor (CHO cell line); conditions: affinity for cloned human B2 receptor stably transfected into CHO cells
T1 construct: expressed in transfected cells
T1 sequence (P30411 1-391): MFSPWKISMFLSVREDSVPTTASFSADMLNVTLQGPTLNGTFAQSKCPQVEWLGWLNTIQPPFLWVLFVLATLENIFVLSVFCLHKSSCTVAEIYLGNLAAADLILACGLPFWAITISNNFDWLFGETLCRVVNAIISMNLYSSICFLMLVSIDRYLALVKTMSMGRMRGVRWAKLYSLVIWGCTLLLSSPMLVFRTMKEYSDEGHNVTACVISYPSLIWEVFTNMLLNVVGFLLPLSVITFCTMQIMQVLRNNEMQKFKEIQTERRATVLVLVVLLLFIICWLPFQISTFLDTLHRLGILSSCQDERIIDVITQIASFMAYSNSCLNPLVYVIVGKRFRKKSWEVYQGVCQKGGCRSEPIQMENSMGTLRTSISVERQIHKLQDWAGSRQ

[2] = target: T2, bradykinin B2 receptor (segments of human umbilical vein) (Homo sapiens, UniProt P30411); assay: B2 receptor-dependent contraction of human umbilical vein segments; format: cell-based; conditions: calculated from concentrations causing B2 receptor-dependent contraction of human umbilical vein; read-out: pD2 (converted)
T2 construct: determination of a pD2 value on segments of human umbilical vein; from tissue; host or cells: segments of human umbilical vein
T2 sequence (P30411 1-391): T1 sequence (P30411 1-391)

Ki [1] | EC50 [2] | Compound
0.7 nM | 200 nM | N=C(N)NCCC[C@@H](N)C(=O)N[C@@H](CCCNC(=N)N)C(=O)N1CCC[C@H]1C(=O)N1C[C@H](O)C[C@H]1C(=O)NCC(=O)N[C@@H](Cc1cccs1)C(=O)N[C@@H](CO)C(=O)N[C@@H]1CSc2ccccc2N(CC(=O)N[C@@H](CCCNC(=N)N)C(=O)O)C1=O [Ex. 1, H-D-Arg-Arg-Pro-4Hyp-Gly-Thi-Ser-DBT(H)-Arg-OH]
0.07 nM | 79.4 nM | N=C(N)NCCC[C@H](NC(=O)CN1C(=O)[C@H](NC(=O)[C@H](CO)NC(=O)[C@H](Cc2cccs2)NC(=O)CNC(=O)[C@@H]2C[C@@H](O)CN2C(=O)[C@@H]2CCCN2C(=O)[C@H](CCCNC(=N)N)NC(=O)[C@@H](N)CCCCN)CSc2ccccc21)C(=O)O [Ex. 2, H-Lys-Arg-Pro-4Hyp-Gly-Thi-Ser-DBT(H)-Arg-OH]
12.9 nM | – | N=C(N)NCCC[C@H](NC(=O)CN1C(=O)[C@H](NC(=O)[C@H](CO)NC(=O)[C@H](Cc2ccccc2)NC(=O)CNC(=O)[C@@H]2CCCN2C(=O)[C@@H]2CCCN2C(=O)[C@@H](N)CCCNC(=N)N)CSc2ccccc21)C(=O)O [Ex. 3, H-Arg-Pro-Pro-Gly-Phe-Ser-DBT(M)-Arg-OH]
2.5 nM | 7940 nM | N=C(N)NCCC[C@@H](N)C(=O)N[C@@H](CCCNC(=N)N)C(=O)N1CCC[C@H]1C(=O)N1C[C@H](O)C[C@H]1C(=O)NCC(=O)N[C@@H](Cc1cccs1)C(=O)N[C@@H](CO)C(=O)N[C@@H]1COc2ccccc2N(CC(=O)N[C@@H](CCCNC(=N)N)C(=O)O)C1=O [Ex. 4, H-D-Arg-Arg-Pro-4Hyp-Gly-Thi-Ser-DBO(H)-Arg-OH]
6 nM | 56.2 nM | Cc1ccc2c(c1)SC[C@@H](NC(=O)[C@H](CO)NC(=O)[C@H](Cc1cccs1)NC(=O)CNC(=O)[C@@H]1C[C@@H](O)CN1C(=O)[C@@H]1CCCN1C(=O)[C@H](CCCNC(=N)N)NC(=O)[C@H](N)CCCNC(=N)N)C(=O)N2CC(=O)N[C@@H](CCCNC(=N)N)C(=O)O [Ex. 5, H-D-Arg-Arg-Pro-4Hyp-Gly-Thi-Ser-DBT(CH3)-Arg-OH]
